Patent US20260355323A1, “CEREBLON-RECRUITING BCL-XL/BCL-2 DUAL DEGRADERS” (University of Florida Research Foundation, Incorporated, priority 2022, published 2026)

How the values were obtained:
platelets = details: animals and/or humans; cited from earlier work
[1] = system: venetoclax resistant CLL cells; details: cited from earlier work
[2] = system: WI-38 irradiation-induced senescent cells (IR-SC); experiment: Senolytic activity, cell viability (PrestoBlue HS), WI-38 IR-SC; assay type: cell-based; details: Homo sapiens, 72 h
Method: (§1) To induce senescence in WI-38 and HUVEC, cells were subjected to x-ray irradiation at 20 Gray using X-RAD 320 biological irradiator. Following between 10 to 15 days after irradiation, senescence was induced in cells, and irradiation-induced senescent cells (IR-SC) were then used for cell viability and Western blotting tests.
(§2) WI-38 and HUVEC cells were incubated with increasing concentrations of degraders for 72 h. Cell viability was measured using PrestoBlue HS cell viability reagent.

Bcl-xL [3] = target: T1, Bcl-xL (Homo sapiens, UniProt Q07817); experiment: Bcl-xL protein degradation in Jurkat cells (immunoblot); assay type: cell-based; details: 16 h
T1 construct: immunoblot after 16 h degrader treatment
T1 sequence (Q07817 whole entry): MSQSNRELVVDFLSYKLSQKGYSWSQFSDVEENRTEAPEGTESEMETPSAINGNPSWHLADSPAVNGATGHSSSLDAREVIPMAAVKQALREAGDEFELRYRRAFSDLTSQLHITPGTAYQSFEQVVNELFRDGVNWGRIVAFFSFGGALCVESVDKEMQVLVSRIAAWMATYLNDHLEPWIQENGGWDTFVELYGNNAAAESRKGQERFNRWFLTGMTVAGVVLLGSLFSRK
T1 sequence (Q96SW2 whole entry partner): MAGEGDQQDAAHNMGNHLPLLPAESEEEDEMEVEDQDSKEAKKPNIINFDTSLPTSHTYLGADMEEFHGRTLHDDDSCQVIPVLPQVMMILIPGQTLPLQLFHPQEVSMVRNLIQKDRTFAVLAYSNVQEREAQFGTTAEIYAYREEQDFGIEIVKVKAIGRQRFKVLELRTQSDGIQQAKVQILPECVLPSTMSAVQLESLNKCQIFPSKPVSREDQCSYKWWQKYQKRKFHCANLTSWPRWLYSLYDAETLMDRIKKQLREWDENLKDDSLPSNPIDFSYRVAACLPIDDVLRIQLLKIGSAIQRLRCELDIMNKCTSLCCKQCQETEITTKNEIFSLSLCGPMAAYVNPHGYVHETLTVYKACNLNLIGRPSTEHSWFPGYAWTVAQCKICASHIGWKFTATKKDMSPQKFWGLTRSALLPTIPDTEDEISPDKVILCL
Method: (§3) Jurkat and Hela cells were incubated with increasing concentrations of test compounds for 16 h. The cells were harvested and lysed in RIPA lysis buffer supplemented with protease and phosphatase inhibitor cocktails. An equal amount of protein (20 μg/lane) was resolved on a pre-cast 4-20% SDS-PAGE gel. Proteins were subsequently transferred to NOVEX PVDF membranes by electrophoresis. The membranes were blocked in blocking buffer (5% non-fat dry milk in TBS-T), and incubated with primary antibodies (at optimized concentrations) overnight at 4° C. After three washings in TBS-T, the membranes were incubated with an appropriate FIRP-conjugated secondary antibody for 1 h at room temperature. After extensive washing for three times, the proteins of interest were detected with ECL western blotting detection reagents and recorded with autoradiography (Pierce Biotech, Rockford, IL, USA). The primary antibodies for Bcl-xL (Cat #2762), Bcl-2 (Cat #2872), Bcl-w (Cat #2724) and β-actin (Cat #4970) were purchased from Cell Signaling Technology. The relative band intensity was measured using ImageJ software and normalized to β-actin.

WI-38 NC = experiment: Senolytic activity, cell viability (PrestoBlue HS), WI-38 NC; assay type: cell-based; details: Homo sapiens, 72 h
Method: as §2

[4] = system: HUVEC irradiation-induced senescent cells (IR-SC); experiment: Senolytic activity, cell viability (PrestoBlue HS), HUVEC IR-SC; assay type: cell-based; details: Homo sapiens, 72 h
Method: as §1, §2

Bcl-xL [5] = target: T1, Bcl-xL; experiment: Bcl-xL protein degradation in Hela cells (immunoblot); assay type: cell-based; details: 16 h
Method: as §3

[6] = system: MOLT-4 acute lymphoblastic leukemia cells; experiment: Cell viability, tetrazolium-based MTS assay, MOLT-4; details: Homo sapiens, MOLT-4, 48 h; read-out: Anti-Cancer Activity EC50 (48 hr), MOLT-4
Method: (§4) Acute lymphoblastic leukemia cells (MOLT-4 and RS4;11) were incubated with increasing concentrations of Bcl-xL/Bcl-2 degraders for 48 h. Cell viability was measured by tetrazolium-based MTS assay.

[7] = system: RS4;11 acute lymphoblastic leukemia cells; experiment: Cell viability, tetrazolium-based MTS assay, RS4;11; details: Homo sapiens, RS4;11, 48 h, read-out: Anti-Cancer Activity EC50 (48 hr), RS4
Method: as §4

HUVEC NC = experiment: Senolytic activity, cell viability (PrestoBlue HS), HUVEC NC; assay type: cell-based
Method: as §2

Structure (SMILES)	dose-limiting thrombocytopenia (platelets)	efficacy in killing venetoclax resistant CLL cells [1]	EC50 [2] [nM]	degradation of Bcl-xL (Bcl-xL [3])	EC50 (WI-38 NC) [nM]	EC50 [4] [nM]	degradation of Bcl-xL (Bcl-xL [5])	EC50 [6] [nM]	EC50 [7] [nM]	Senolytic Activity EC50 (72 hr), HUVEC NC (HUVEC NC)
CC1(C)CCC(c2ccc(Cl)cc2)=C(CN2CCN(c3ccc(C(=O)NS(=O)(=O)c4ccc(N[C@H](CCN5CCOCC5)CSc5ccccc5)c(S(=O)(=O)C(F)(F)F)c4)cc3)CC2)C1 [ABT-263, navitoclax]	dose-limiting thrombocytopenia has been observed	high efficacy								
CN(C)CC[C@H](CSc1ccccc1)Nc1ccc(S(=O)(=O)NC(=O)c2ccc(N3CCN(Cc4ccccc4-c4ccc(Cl)cc4)CC3)cc2)cc1[N+](=O)[O-] [ABT-737]	dose-limiting thrombocytopenia has been observed									
Cc1c(S(C)(=O)=O)c(-c2cc(F)cc(N3CCN(c4ccc(NS(=O)(=O)c5ccc(N[C@H](CCN6CCC(O)CC6)CSc6ccccc6)c(S(=O)(=O)C(F)(F)F)c5)cc4)CC3)c2)c(-c2ccc(Cl)cc2)n1C(C)C [BM-1197]	dose-limiting thrombocytopenia has been observed									
C[C@@]1(CN2CCC(CN3CCN(c4ccc5c(c4)CN(C4CCC(=O)NC4=O)C5=O)CC3)CC2)CCC(c2ccc(Cl)cc2)=C(CN2CCN(c3ccc(C(=O)NS(=O)(=O)c4ccc(N[C@H](CCN5CCCOCC5)CSc5ccccc5)c(S(=O)(=O)C(F)(F)F)c4)cc3)CC2)C1 (stereo partly drawn) [Compound 11, N-((4-(((R)-4-(1,4-oxazepan-4-yl)-1-(phenylthio)butan-2-yl)amino)-3-((trifluoromethyl)sulfonyl)phenyl)sulfonyl)-4-(4-(((4R)-4′-chloro-4-((4-((4-(2-(2,6-dioxopiperidin-3-yl)-1-oxoisoindolin-5-yl)piperazin-1-yl)methyl)piperidin-1-yl)methyl)-4-methyl-3,4,5,6-tetrahydro-[1,1′-biphenyl]-2-yl)methyl)piperazin-1-yl)benzamide]			1 to 10	degrade Bcl-xL in a dose-dependent manner	> 10000	< 1	degrade Bcl-xL in a dose-dependent manner	< 1	< 1	
C[C@@]1(CN2CCC(CN3CCCN(c4ccc5c(c4)CN(C4CCC(=O)NC4=O)C5=O)CC3)CC2)CCC(c2ccc(Cl)cc2)=C(CN2CCN(c3ccc(C(=O)NS(=O)(=O)c4ccc(N[C@H](CCN5CCCOCC5)CSc5ccccc5)c(S(=O)(=O)C(F)(F)F)c4)cc3)CC2)C1 (stereo partly drawn) [Compound 44, N-((4-(((R)-4-(1,4-oxazepan-4-yl)-1-(phenylthio)butan-2-yl)amino)-3-((trifluoromethyl)sulfonyl)phenyl)sulfonyl)-4-(4-(((4R)-4′-chloro-4-((4-((4-(2-(2,6-dioxopiperidin-3-yl)-1-oxoisoindolin-5-yl)-1,4-diazepan-1-yl)methyl)piperidin-1-yl)methyl)-4-methyl-3,4,5,6-tetrahydro-[1,1′-biphenyl]-2-yl)methyl)piperazin-1-yl)benzamide]			1 to 10	degrade Bcl-xL in a dose-dependent manner	> 10000	< 1	degrade Bcl-xL in a dose-dependent manner	< 1	< 1	++ (100-10 μM)
C[C@@]1(CN2CCC(c3ccc4c(c3)CN(C3CCC(=O)NC3=O)C4=O)CC2)CCC(c2ccc(Cl)cc2)=C(CN2CCN(c3ccc(C(=O)NS(=O)(=O)c4ccc(N[C@H](CCN5CCCOCC5)CSc5ccccc5)c(S(=O)(=O)C(F)(F)F)c4)cc3)CC2)C1 (stereo partly drawn) [Compound 128, N-((4-(((R)-4-(1,4-oxazepan-4-yl)-1-(phenylthio)butan-2-yl)amino)-3-((trifluoromethyl)sulfonyl)phenyl)sulfonyl)-4-(4-(((4R)-4′-chloro-4-((4-(2-(2,6-dioxopiperidin-3-yl)-1-oxoisoindolin-5-yl)piperidin-1-yl)methyl)-4-methyl-3,4,5,6-tetrahydro-[1,1′-biphenyl]-2-yl)methyl)piperazin-1-yl)benzamide]			1 to 10	degrade Bcl-xL in a dose-dependent manner		< 1	degrade Bcl-xL in a dose-dependent manner	< 1	< 1	++ (100-10 μM)
C[C@@]1(CN2CCC(CN3CCN(c4ccc5c(c4)C(=O)N(C4CCC(=O)NC4=O)C5)CC3)CC2)CCC(c2ccc(Cl)cc2)=C(CN2CCN(c3ccc(C(=O)NS(=O)(=O)c4ccc(N[C@H](CCN5CCCOCC5)CSc5ccccc5)c(S(=O)(=O)C(F)(F)F)c4)cc3)CC2)C1 (stereo partly shown) [Compound 134]			1 to 10			< 1		< 1	< 1	++ (100-10 μM)
C[C@@]1(CN2CCCN(c3ccc4c(c3)CN(C3CCC(=O)NC3=O)C4=O)CC2)CCC(c2ccc(Cl)cc2)=C(CN2CCN(c3ccc(C(=O)NS(=O)(=O)c4ccc(N[C@H](CCN5CCCOCC5)CSc5ccccc5)c(S(=O)(=O)C(F)(F)F)c4)cc3)CC2)C1 (stereo partly drawn) [Compound 135, N-((4-(((R)-4-(1,4-oxazepan-4-yl)-1-(phenylthio)butan-2-yl)amino)-3-((trifluoromethyl)sulfonyl)phenyl)sulfonyl)-4-(4-(((4R)-4′-chloro-4-((4-(2-(2,6-dioxopiperidin-3-yl)-1-oxoisoindolin-5-yl)-1,4-diazepan-1-yl)methyl)-4-methyl-3,4,5,6-tetrahydro-[1,1′-biphenyl]-2-yl)methyl)piperazin-1-yl)benzamide]			10 to 100			< 1		< 1	< 1	++ (100-10 μM)
CN(C)CC#Cc1ccc(OCCCc2sc(N3CCc4cccc(C(=O)Nc5nc6ccccc6s5)c4C3)nc2C(=O)O)c(F)c1 [Compound A-1155463]	dose-limiting thrombocytopenia has been observed									
